pIC50: −log10 of the molar value.
Legend:
[1] = target: T1, PI3Kγ (p120γ) (Homo sapiens, UniProt P48736); test: Inhibition of PI3K kinase activity (ADP Glo), PI3Kγ; details: Table 1, p120γ, read-out: biochemical potency (PI3Kγ IC50)
T1 construct: purchased Promega V1761
In short: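 IC50 values come from a 4-parameter nonlinear fit of ADP-Glo luminescence, which measures ADP produced as PIP2 is phosphorylated to PIP3. The p120γ enzyme (2× stock 8 nM) sat with compound 1 h at rt before substrate (2× stocks: 50 μM ATP, 0.1 mg/ml PIP2) was added. Phosphorylation then proceeded 60 min at rt.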

[2] = target: T2, PI3Kγ (Homo sapiens, UniProt P48736); test: PI3Kγ cellular assay in THP-1 cells (AKT pS473 AlphaLISA); format: cell-based; details: Table 1, rhMCP-1 stimulated AKT pS473, read-out: cellular potency (PI3Kγ IC50)
T2 construct: host or cells: THP-1
T2 sequence (P48736 whole entry): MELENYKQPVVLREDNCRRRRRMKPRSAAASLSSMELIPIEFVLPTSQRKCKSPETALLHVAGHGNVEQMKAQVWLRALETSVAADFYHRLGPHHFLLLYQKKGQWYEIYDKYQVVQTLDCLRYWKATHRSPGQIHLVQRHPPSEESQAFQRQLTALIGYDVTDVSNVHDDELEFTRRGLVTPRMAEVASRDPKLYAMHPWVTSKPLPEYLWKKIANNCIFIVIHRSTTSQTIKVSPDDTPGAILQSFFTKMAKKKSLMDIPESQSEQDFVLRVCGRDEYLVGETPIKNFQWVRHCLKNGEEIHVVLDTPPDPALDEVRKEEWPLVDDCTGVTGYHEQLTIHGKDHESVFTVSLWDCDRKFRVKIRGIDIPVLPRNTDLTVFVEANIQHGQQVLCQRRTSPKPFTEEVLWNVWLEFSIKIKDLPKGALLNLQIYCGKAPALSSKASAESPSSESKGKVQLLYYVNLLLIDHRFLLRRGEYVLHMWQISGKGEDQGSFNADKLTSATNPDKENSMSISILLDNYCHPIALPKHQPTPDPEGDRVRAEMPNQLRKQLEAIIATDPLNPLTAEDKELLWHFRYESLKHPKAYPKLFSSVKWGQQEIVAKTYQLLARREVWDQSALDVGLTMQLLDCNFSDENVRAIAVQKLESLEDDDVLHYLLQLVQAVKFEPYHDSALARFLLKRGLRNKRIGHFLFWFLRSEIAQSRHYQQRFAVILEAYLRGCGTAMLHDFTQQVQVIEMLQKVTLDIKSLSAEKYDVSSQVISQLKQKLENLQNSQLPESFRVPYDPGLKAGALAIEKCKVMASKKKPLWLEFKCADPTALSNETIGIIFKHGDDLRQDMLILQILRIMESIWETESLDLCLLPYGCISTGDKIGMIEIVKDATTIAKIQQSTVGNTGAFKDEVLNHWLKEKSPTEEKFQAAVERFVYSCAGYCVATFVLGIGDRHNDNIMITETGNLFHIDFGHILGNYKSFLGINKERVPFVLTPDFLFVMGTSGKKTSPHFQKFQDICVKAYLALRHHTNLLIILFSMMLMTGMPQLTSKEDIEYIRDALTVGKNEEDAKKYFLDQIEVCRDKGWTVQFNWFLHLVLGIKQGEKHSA
In short: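 Endogenous AKT S473 phosphorylation, detected by AlphaLISA in lysates, serves as the PI3Kγ activity read-out in stimulated, serum-starved THP-1 cells (1.8×10^5/well).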

T1 sequence (P48736 whole entry): as above

pIC50 [1] | pIC50 [2] | SMILES
> 7.00 | > 7.00 | CC(C)NC(=O)c1c(N)nn2ccc(-c3cc4c(c(NS(C)(=O)=O)c3)C(=O)N([C@@H](C)C3CC3)C4)nc12 [Example 75, 2-Amino-5-{2-[(1S)-1-cyclopropylethyl]-7-methanesulfonamido-1-oxo-2,3-dihydro-1H-isoindol-5-yl}-N-(propan-2-yl)pyrazolo[1,5-a]pyrimidine-3-carboxamide]
> 7.00 | 6.00 to 7.00 | C[C@@H](C1CC1)N1Cc2cc(-c3ccn4nc(N)c(C(N)=O)c4n3)cc(NS(C)(=O)=O)c2C1=O [Example 76, 5-{2-[(S)-1-Cyclopropylethyl]-7-(methylsulfonylamino)-5-isoindolinoyl}-2-amino-1,4,7a-triaza-3-indenecarboxamide]
> 7.00 | > 7.00 | C[C@@H](C1CC1)N1Cc2cc(-c3ccn4nc(N)c(C(=O)NC5CC56CC6)c4n3)cc(NS(C)(=O)=O)c2C1=O (stereo partly drawn) [Example 77, 2-[(S)-1-Cyclopropylethyl]-5-(2-amino-3-{(1-spiro[2.2]pentylamino)carbonyl}-1,4,7a-triaza-5-indenyl)-7-(methylsulfonylamino)-1-isoindolinone]
> 7.00 | > 7.00 | C[C@@H](C1CC1)N1Cc2cc(-c3ccn4nc(N)c(C(=O)NC5COC5)c4n3)cc(NS(C)(=O)=O)c2C1=O [Example 78, 2-Amino-5-{2-[(1S)-1-cyclopropylethyl]-7-methanesulfonamido-1-oxo-2,3-dihydro-1H-isoindol-5-yl}-N-(oxetan-3-yl)pyrazolo[1,5-a]pyrimidine-3-carboxamide]
> 7.00 | > 7.00 | C[C@@H](C1CC1)N1Cc2cc(-c3ccn4nc(N)c(C(=O)NC5(C)COC5)c4n3)cc(NS(C)(=O)=O)c2C1=O [Example 79, 2-Amino-5-{2-[(1S)-1-cyclopropylethyl]-7-methanesulfonamido-1-oxo-2,3-dihydro-1H-isoindol-5-yl}-N-(3-methyloxetan-3-yl)pyrazolo[1,5-a]pyrimidine-3-carboxamide]
> 7.00 | > 7.00 | C[C@@H](C1CC1)N1Cc2cc(-c3ccn4nc(N)c(C(=O)NC5(C#N)COC5)c4n3)cc(NS(C)(=O)=O)c2C1=O [Example 80, 2-Amino-N-(3-cyanooxetan-3-yl)-5-{2-[(1S)-1-cyclopropylethyl]-7-methanesulfonamido-1-oxo-2,3-dihydro-1H-isoindol-5-yl}pyrazolo[1,5-a]pyrimidine-3-carboxamide]
> 7.00 | > 7.00 | C[C@@H](C1CC1)N1Cc2cc(-c3ccn4nc(N)c(C(=O)NC5(C#N)CCC5)c4n3)cc(NS(C)(=O)=O)c2C1=O [Example 81, 2-Amino-N-(1-cyanocyclobutyl)-5-{2-[(1S)-1-cyclopropylethyl]-7-methanesulfonamido-1-oxo-2,3-dihydro-1H-isoindol-5-yl}pyrazolo[1,5-a]pyrimidine-3-carboxamide]
> 7.00 | > 7.00 | C[C@@H](C1CC1)N1Cc2cc(-c3ccn4nc(N)c(C(=O)N[C@H]5C[C@](C)(O)C5)c4n3)cc(NS(C)(=O)=O)c2C1=O [Example 82, 2-Amino-5-{2-[(1S)-1-cyclopropylethyl]-7-methanesulfonamido-1-oxo-2,3-dihydro-1H-isoindol-5-yl}-N-[trans-3-hydroxy-3-methylcyclobutyl]pyrazolo[1,5-a]pyrimidine-3-carboxamide]
> 7.00 | > 7.00 | C[C@@H](C1CC1)N1Cc2cc(-c3ccn4nc(N)c(C(=O)N[C@]5(C)C[C@@H](O)C5)c4n3)cc(NS(C)(=O)=O)c2C1=O [Example 83, 2-Amino-5-{2-[(1S)-1-cyclopropylethyl]-7-methanesulfonamido-1-oxo-2,3-dihydro-1H-isoindol-5-yl}-N-[trans-3-hydroxy-1-methylcyclobutyl]pyrazolo[1,5-a]pyrimidine-3-carboxamide]
> 7.00 | > 7.00 | CO[C@H]1C[C@H](NC(=O)c2c(N)nn3ccc(-c4cc5c(c(NS(C)(=O)=O)c4)C(=O)N([C@@H](C)C4CC4)C5)nc23)C1 [Example 84, 2-Amino-5-{2-[(1S)-1-cyclopropylethyl]-7-methanesulfonamido-1-oxo-2,3-dihydro-1H-isoindol-5-yl}-N-[trans-3-methoxycyclobutyl]pyrazolo[1,5-a]pyrimidine-3-carboxamide]
> 7.00 | > 7.00 | C[C@@H](C1CC1)N1Cc2cc(-c3ccn4nc(N)c(C(=O)NC[C@H]5C[C@H](O)C5)c4n3)cc(NS(C)(=O)=O)c2C1=O [Example 85, 2-Amino-5-{2-[(1S)-1-cyclopropylethyl]-7-methanesulfonamido-1-oxo-2,3-dihydro-1H-isoindol-5-yl}-N-{[trans-3-hydroxycyclobutyl]methyl}pyrazolo[1,5-a]pyrimidine-3-carboxamide]
> 7.00 | > 7.00 | C[C@@H](C1CC1)N1Cc2cc(-c3ccn4nc(N)c(C(=O)N[C@@H]5CC[C@@H](O)C5)c4n3)cc(NS(C)(=O)=O)c2C1=O [Example 86, 2-Amino-5-{2-[(1S)-1-cyclopropylethyl]-7-methanesulfonamido-1-oxo-2,3-dihydro-1H-isoindol-5-yl}-N-[(1R,3R)-3-hydroxycyclopentyl]pyrazolo[1,5-a]pyrimidine-3-carboxamide]
> 7.00 | > 7.00 | C[C@@H](C1CC1)N1Cc2cc(-c3ccn4nc(N)c(C(=O)NC5CC5)c4n3)cc(NS(C)(=O)=O)c2C1=O [Example 87, 2-Amino-N-cyclopropyl-5-{2-[(1S)-1-cyclopropylethyl]-7-methanesulfonamido-1-oxo-2,3-dihydro-1H-isoindol-5-yl}pyrazolo[1,5-a]pyrimidine-3-carboxamide]
> 7.00 | > 7.00 | C[C@@H](C1CC1)N1Cc2cc(-c3ccn4nc(N)c(C(=O)N[C@@H]5COC[C@H]5O)c4n3)cc(NS(C)(=O)=O)c2C1=O [Example 88, 2-Amino-5-{2-[(1S)-1-cyclopropylethyl]-7-methanesulfonamido-1-oxo-2,3-dihydro-1H-isoindol-5-yl}-N-[(3R,4S)-4-hydroxyoxolan-3-yl]pyrazolo[1,5-a]pyrimidine-3-carboxamide]
> 7.00 | > 7.00 | C[C@@H](C1CC1)N1Cc2cc(-c3ccn4nc(N)c(C(=O)N[C@H]5CC[C@@](C)(O)CC5)c4n3)cc(NS(C)(=O)=O)c2C1=O [Example 89, 2-Amino-5-{2-[(1S)-1-cyclopropylethyl]-7-methanesulfonamido-1-oxo-2,3-dihydro-1H-isoindol-5-yl}-N-[cis-4-hydroxy-4-methylcyclohexyl]pyrazolo[1,5-a]pyrimidine-3-carboxamide]
> 7.00 | > 7.00 | C[C@@H](C1CC1)N1Cc2cc(-c3ccn4nc(N)c(C(=O)N[C@H]5CC[C@](O)(C(F)(F)F)CC5)c4n3)cc(NS(C)(=O)=O)c2C1=O [Example 90, 2-Amino-5-{2-[(1S)-1-cyclopropylethyl]-7-methanesulfonamido-1-oxo-2,3-dihydro-1H-isoindol-5-yl}-N-[cis-4-hydroxy-4-(trifluoromethyl)cyclohexyl]pyrazolo[1,5-a]pyrimidine-3-carboxamide]
> 7.00 | > 7.00 | C[C@@H](C1CC1)N1Cc2cc(-c3ccn4nc(N)c(C(=O)N[C@H]5CC[C@H](C(C)(C)O)CC5)c4n3)cc(NS(C)(=O)=O)c2C1=O [Example 91, 2-Amino-5-{2-[(1S)-1-cyclopropylethyl]-7-methanesulfonamido-1-oxo-2,3-dihydro-1H-isoindol-5-yl}-N-[trans-4-(2-hydroxypropan-2-yl)cyclohexyl]pyrazolo[1,5-a]pyrimidine-3-carboxamide]
> 7.00 | > 7.00 | C[C@@H](C1CC1)N1Cc2cc(-c3ccn4nc(N)c(C(=O)N[C@H]5CC[C@H](C6(O)CC6)CC5)c4n3)cc(NS(C)(=O)=O)c2C1=O [Example 92, 2-Amino-5-{2-[(1S)-1-cyclopropylethyl]-7-methanesulfonamido-1-oxo-2,3-dihydro-1H-isoindol-5-yl}-N-[trans-4-(1-hydroxycyclopropyl)cyclohexyl]pyrazolo[1,5-a]pyrimidine-3-carboxamide]
> 7.00 | > 7.00 | C[C@H](CO)NC(=O)c1c(N)nn2ccc(-c3cc4c(c(NS(C)(=O)=O)c3)C(=O)N([C@@H](C)C3CC3)C4)nc12 [Example 93, 2-Amino-5-{2-[(1S)-1-cyclopropylethyl]-7-methanesulfonamido-1-oxo-2,3-dihydro-1H-isoindol-5-yl}-N-[(2R)-1-hydroxypropan-2-yl]pyrazolo[1,5-a]pyrimidine-3-carboxamide]
> 7.00 | > 7.00 | C[C@@H](C1CC1)N1Cc2cc(-c3ccn4nc(N)c(C(=O)NC(C)(C)CO)c4n3)cc(NS(C)(=O)=O)c2C1=O [Example 94, 2-Amino-5-{2-[(1S)-1-cyclopropylethyl]-7-methanesulfonamido-1-oxo-2,3-dihydro-1H-isoindol-5-yl}-N-(1-hydroxy-2-methylpropan-2-yl)pyrazolo[1,5-a]pyrimidine-3-carboxamide]
> 7.00 | > 7.00 | C[C@@H](C1CC1)N1Cc2cc(-c3ccn4nc(N)c(C(=O)NCCC(C)(C)O)c4n3)cc(NS(C)(=O)=O)c2C1=O [Example 95, 2-Amino-5-{2-[(1S)-1-cyclopropylethyl]-7-methanesulfonamido-1-oxo-2,3-dihydro-1H-isoindol-5-yl}-N-(3-hydroxy-3-methylbutyl)pyrazolo[1,5-a]pyrimidine-3-carboxamide]

Source: patent US20230024302A1, “2,3,5-TRISUBSTITUTED PYRAZOLO[1,5-A]PYRIMIDINE COMPOUNDS” (Arcus Biosciences, Inc., priority 2019, published 2023)
